For eleven compounds, Ki results are on record in BindingDB's records for doi:10.1021/bi9016928 (Uppsala University, 2009).

Starred links: 1 amine or outer side, 2 acyl side, 3 side chain; linkers in the order of their positions; H or OH if unused. Non-standard residues stand in square brackets, D forms with d. Residues, ends and D or L forms follow the SMILES beside them. ξ: configuration not given here. Dip = N[C@H](C(=O)O)C(c1ccccc1)c1ccccc1; 2Nal = N[C@@H](Cc1ccc2ccccc2c1)C(=O)O; Cha = N[C@@H](CC1CCCCC1)C(=O)O; Ile(3ξ) = CCC(C)[C@H](N)C(=O)O; Chg = N[C@H](C(=O)O)C1CCCCC1; Suc = O=C(CCC(=O)[*:2])[*:1]

The target in the assay is T1, Genome polyprotein (Hepacivirus hominis, UniProt Q04045).
T1 sequence (Q04045 whole entry): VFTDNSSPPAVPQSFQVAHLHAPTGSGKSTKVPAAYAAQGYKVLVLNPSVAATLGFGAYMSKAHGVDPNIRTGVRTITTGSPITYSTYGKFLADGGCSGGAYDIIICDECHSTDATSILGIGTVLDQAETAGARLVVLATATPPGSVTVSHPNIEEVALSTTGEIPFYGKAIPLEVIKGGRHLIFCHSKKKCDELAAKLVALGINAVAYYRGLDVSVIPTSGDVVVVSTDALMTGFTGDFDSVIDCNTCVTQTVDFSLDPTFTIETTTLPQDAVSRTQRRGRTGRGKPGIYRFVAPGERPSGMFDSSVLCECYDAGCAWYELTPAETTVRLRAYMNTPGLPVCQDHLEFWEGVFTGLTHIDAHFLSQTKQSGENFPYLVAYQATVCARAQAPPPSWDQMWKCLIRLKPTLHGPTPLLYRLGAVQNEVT
Put plainly: Competitive Inhibition Assay. Here is the method:
Analysis of the inhibition activation of flNS3 by the inhibitors was performed with the standard assay, allowing the inhibitor to preincubate with NS3 and NS4 for 15 min. prior to addition of substrate.

A word on the Ki: it is the equilibrium dissociation constant of an inhibitor or competing ligand from its target. A low value points to a stronger hold on the target. As for `CCC[C@H](NC(=O)[C@@H]1C[C@@H](Oc2cc(-c3ccccc3)nc3cc(OC)ccc23)CN1C(=O)[C@@H](NC(=O)OC(C)(C)C)C(C)C)C(=O)NS(=O)(=O)c1ccccc1` [NS3 Protease Inhibitor, 8], the Ki is 170 nM.

For `COc1ccc2c(O[C@@H]3C[C@H]4C(=O)N[C@]5(C(=O)O)C[C@H]5/C=C\CCCCC[C@H](NC(=O)OC5CCCC5)C(=O)N4C3)cc(-c3csc(NC(C)C)n3)nc2c1`, the Ki was 0.12 nM. This Ki is about 1400-fold lower than that of the compound before. `CC(=O)N[C@H](C(=O)N[C@@H](CCC(=O)O)C(=O)N[C@@H](Cc1ccc2ccccc2c1)C(=O)N[C@@H](CS)C(=O)O)C1CCCCC1` [NS3 Protease Inhibitor, 5] (Ac-[Chg]E[2Nal]C-OH) registered a Ki of 500 nM. This Ki is about 4200-fold higher than that of the compound before. The same measure for `C=CC1C[C@]1(NC(=O)[C@@H]1C[C@@H](Oc2cc(-c3ccccc3)nc3cc(OC)ccc23)CN1C(=O)[C@@H](NC(=O)OC(C)(C)C)C(C)C)C(=O)O` (stereo partly specified) [NS3 Protease Inhibitor, 9]: 15 nM. For `O=C(O)CCC(=O)N[C@H](C(=O)N[C@@H](CCC(=O)O)C(=O)N[C@@H](Cc1ccc2ccccc2c1)C(=O)N[C@@H](CS)C(=O)O)C1CCCCC1` [NS3 Protease Inhibitor, 2] (Suc-[Chg]E[2Nal]C-OH) the value was 180 nM. `COc1ccc2c(O[C@@H]3C[C@@H](C(=O)NC4(C(=O)O)CC4)N(C(=O)[C@@H](NC(=O)OC(C)(C)C)C(C)C)C3)cc(-c3ccccc3)nc2c1` [NS3 Protease Inhibitor, 6] displayed a Ki of 1100 nM. The same measure for `O=C(O)CCC(=O)N[C@H](C(=O)N[C@@H](CCC(=O)O)C(=O)N[C@@H](CCC(=O)O)C(=O)N[C@@H](CS)C(=O)O)C(c1ccccc1)c1ccccc1` [NS3 Protease Inhibitor, 3] (Suc-[Dip]EEC-OH): 520 nM; for `C=CC1C[C@]1(NC(=O)[C@@H]1C[C@@H](Oc2cc(-c3ccccc3)nc3cc(OC)ccc23)CN1C(=O)[C@@H](NC(=O)OC(C)(C)C)C(C)C)C(=O)NS(=O)(=O)c1ccccc1` (stereo partly specified) [NS3 Protease Inhibitor, 10]: 0.22 nM.

Compound `C=CC1C[C@]1(NC(=O)[C@@H](NC(=O)C(NC(=O)OC(C)(C)C)C(C)C)c1ccc(Oc2cc(-c3ccccc3)nc3cc(OC)ccc23)cc1)C(=O)NS(=O)(=O)c1ccccc1` (stereo partly specified) [NS3 Protease Inhibitor, 7] registered a Ki of 290 nM. The same measure for `CCC(C)[C@H](NC(=O)[C@@H](NC(=O)CCC(=O)O)C1CCCCC1)C(=O)N[C@@H](CC1CCCCC1)C(=O)N[C@@H](CS)C(=O)O` (stereo partly specified) [NS3 Protease Inhibitor, 1] (Suc-[Chg][Ile(3ξ)][Cha]C-OH): 330 nM. Take `O=C(O)CCC(=O)N[C@H](C(=O)N[C@@H](CCC(=O)O)C(=O)N[C@@H](CC1CCCCC1)C(=O)N[C@@H](CS)C(=O)O)C1CCCCC1` [NS3 Protease Inhibitor, 4] (Suc-[Chg]E[Cha]C-OH): the Ki is 150 nM.
